Here are results for five compounds from US20090130236A1, “ANTI-MICROBIAL AGENT AND ANTI-MICROBIAL COMPOSITION” (Hououdou Co., Ltd., priority 2002, published 2009).

Each structure is given as a SMILES string. Converted amounts (≈) assume the structure as drawn. Like-named read-outs stand apart in the source and are kept apart here.

Test [1] deals with clinically isolated 26 strains of P. acnes. The test can be described thus: MIC, agar plate dilution, Test Example 10. The note with it: reference data, not obtained through tests simultaneously carried out. It counts as cell-based, Propionibacterium acnes.
Test [2] deals with Staphylococcus spp. (44 Strains). The test can be described thus: MIC, agar plate dilution, Test Example 22. Format: cell-based. From the text:
Strains Used: There were used 44 strains of Staphylococcus spp. […] Sterilized distilled water was used in the dilution of the solution.

Setting [3] is: Cutibacterium acnes, read-out: MIC50.
Setting [4] is: Cutibacterium acnes, read-out: MIC80.
[5] abbreviates: Staphylococcus, read-out: MIC50.
[6] abbreviates: Staphylococcus, read-out: MIC80.

One may read the MIC50 as an inhibitory concentration at the 50% level, which refers to growth in some studies and to a panel of isolates in others. Broadly, the MIC80 is an inhibitory concentration at the 80% level, which refers to growth in some studies and to a panel of isolates in others. For the compound `CC1COc2c(N3CCN(C)CC3)c(F)cc3c(=O)c(C(=O)O)cn1c23` (centres unmarked) [OFLX, Ofloxacin], the MIC50 in test [1] (setting [3]) and in test [2] (setting [5]) was 0.39 µg/mL (≈ 1.08 µM) each time. Further, the MIC80 in test [1] (setting [4]) worked out at 0.39 µg/mL (≈ 1.08 µM); in test [2] (setting [6]), 0.78 µg/mL (≈ 2.16 µM).
For the compound `CN(C)c1ccc(O)c2c1C[C@H]1C[C@H]3[C@H](N(C)C)C(O)=C(C(N)=O)C(=O)[C@@]3(O)C(O)=C1C2=O` [MINO, Minocycline], the MIC50 is 0.05 µg/mL (≈ 0.109 µM) in test [1] (setting [3]) and 0.1 µg/mL (≈ 0.219 µM) in test [2] (setting [5]). The MIC80 in test [1] (setting [4]) and in test [2] (setting [6]) was 0.1 µg/mL (≈ 0.219 µM) throughout.
Take `CC1CCc2c(N3CCC(O)CC3)c(F)cc3c(=O)c(C(=O)O)cn1c23` (centres unmarked) [NDFX, Nadifloxacin]: the MIC50 was 0.19 µg/mL (≈ 0.527 µM) in test [1] (setting [3]) and 0.05 µg/mL (≈ 0.139 µM) in test [2] (setting [5]). In addition, the MIC80 in test [1] (setting [4]) was 0.19 µg/mL (≈ 0.527 µM); in test [2] (setting [6]), 0.78 µg/mL (≈ 2.16 µM).
As to `CN(C)[C@@H]1C(=O)C(C(N)=O)=C(O)[C@@]2(O)C(=O)C3=C(O)c4c(O)cccc4[C@@](C)(O)[C@H]3C[C@@H]12` [TC, Tetracycline], in test [1], the “MIC50” value stood at 0.19 µg/mL (≈ 0.428 µM) and the “MIC80” value was 0.19 µg/mL (≈ 0.428 µM). Further, in test [2], the “MIC50” value worked out at 0.39 µg/mL (≈ 0.878 µM) and the “MIC80” value came out at 25 µg/mL (≈ 56.3 µM).
On to `CCC[C@@H]1C[C@@H](C(=O)N[C@@H]([C@H]2O[C@H](SC)[C@H](O)[C@@H](O)[C@H]2O)[C@H](C)Cl)N(C)C1` [CLDM, Clindamycin], for which, in test [1], the “MIC50” value came to 0.10 µg/mL (≈ 0.235 µM) and the “MIC80” value was 0.19 µg/mL (≈ 0.447 µM). Besides, in test [2], the “MIC50” value was 0.10 µg/mL (≈ 0.235 µM) and the “MIC80” value was above 100 µg/mL.
